Our source for the IC50 values is article PMC9104108, “Purification and Identification of Novel Myeloperoxidase Inhibitory Antioxidant Peptides from Tuna (Thunnas albacares) Protein Hydrolysates” (Molecules, 2022).

Where no end group is shown, it is not given here. Where only a bound is given, the exact number is not on record here.

Experiment [1] addresses T1, MPO (Homo sapiens, UniProt P05164).
T1 construct: purchased Abnova, Taiwan
T1 sequence (P05164 49-745): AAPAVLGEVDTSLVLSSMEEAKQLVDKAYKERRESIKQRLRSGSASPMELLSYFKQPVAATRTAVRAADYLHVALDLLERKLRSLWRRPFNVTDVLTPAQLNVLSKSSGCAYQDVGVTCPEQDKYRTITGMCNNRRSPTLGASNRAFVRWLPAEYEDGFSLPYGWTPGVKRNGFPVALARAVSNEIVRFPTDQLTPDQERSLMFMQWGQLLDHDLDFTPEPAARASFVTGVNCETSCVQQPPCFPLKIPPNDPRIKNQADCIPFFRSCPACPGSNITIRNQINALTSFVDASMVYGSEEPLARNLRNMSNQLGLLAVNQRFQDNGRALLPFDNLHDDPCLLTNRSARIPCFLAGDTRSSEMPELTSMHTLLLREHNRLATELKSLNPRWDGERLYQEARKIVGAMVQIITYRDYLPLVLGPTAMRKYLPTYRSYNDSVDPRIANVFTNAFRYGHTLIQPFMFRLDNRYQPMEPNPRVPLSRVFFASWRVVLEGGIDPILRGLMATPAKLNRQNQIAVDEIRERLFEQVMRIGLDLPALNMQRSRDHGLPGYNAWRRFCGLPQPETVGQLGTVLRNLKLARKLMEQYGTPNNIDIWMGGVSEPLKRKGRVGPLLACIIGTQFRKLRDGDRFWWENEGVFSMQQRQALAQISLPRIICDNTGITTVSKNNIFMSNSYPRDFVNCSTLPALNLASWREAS
The experiment in a line: MPO inhibitor screening assay kit, peroxidation assay. The class given is biochemical. The note with it: ADHP substrate, synthesized peptides. From the text: (§1) The inhibitory effect of peptides on MPO was estimated using an MPO inhibitor screening assay kit (Abnova, Taiwan), which was used to assess in both the peroxidation and chlorination activities of MPO. Peroxidation assay utilizes the peroxidase component of MPO. During the reaction, hydrogen peroxide reacts with 10-acetyl-3,7-dihydroxyphenoxazine (ADHP) to yield resorufin, a highly fluorescent compound. The chlorination assay utilizes non-fluorescent 2-[6-(4-aminophenoxy)-3-oxo-3H-xanthen-9-yl]-benzoic acid (APF), which is selectively cleaved by hypochlorite to produce fluorescein. The 4-aminobenzhydrazide was used as positive control. The MPO inhibitory activity was determined according to the kit instructions.

For experiment [2], the target named is T1, MPO. The experiment in a line: MPO inhibitor screening assay kit, chlorination assay. Format: biochemical. The note with it: APF substrate, synthesized peptides.
Text: as §1

For KFCSGHA [KFCSGHA], the 50% inhibitory concentration (IC50) was 40.3 µM against MPO [1] and 108 µM against MPO [2].

For ACGSDGK [ACGSDGK], the half-maximal inhibitory concentration (IC50) at MPO [1] stood at 17.9 µM; at MPO [2], 32.3 µM.

For GELALKD [GELALKD], the figures for the IC50 at MPO [1] and against MPO [2] were above 500 µM and 122 µM, respectively.

DASHGHSG: the IC50 against MPO [1] and against MPO [2] was above 500 µM each time.

For the substance GDAFDKA [GDAFDKA], the IC50 at MPO [1] and against MPO [2] was above 500 µM in each case.

Take DVSDLDAD: the 50% inhibitory concentration (IC50) is above 500 µM against MPO [1] and 296 µM at MPO [2].
